26 substances from PMC5458078, “Global mapping of CARM1 substrates defines enzyme specificity and substrate recognition” (Nature Communications, 2017) can be followed below.

One assay deals with MCF7 cells. Description: Quantitative nanoLC-MS/MS (TMT) of ADMA-containing peptides, CARM1 KO vs parental. The format is cell-based, human. Also on record: Fold change KO/WT: scale not given here.
For a further assay, the system named is MCF7 CARM1 KO cells. Description: Quantitative MS of ADMA-containing peptides in MCF7 CARM1 KO cells expressing CARM1 28-608 or CARM1 140-608, and in CARM1 KO. The format is cell-based, human.
Setting [1] is: ADMA-containing peptide, MCF7, CARM1 knockout (KO1-3) vs wild type (WT1-3), TMT 6-plex experiment #1.
[2] abbreviates: log2 scale ratio, mean of n = 3.
[3] abbreviates: MCF7, CARM1 KO vs WT, three biological replicates each.
The mark [4] stands for this setting: CARM1 140-608 vs WT, mean of 3 replicates, log2.
Where [5] appears, read: KO vs WT, mean of 3 replicates, log2.
[6] abbreviates: MCF7, CARM1 KO (KO1-KO3) vs wild type (WT1-WT3).
Setting [7] is: CARM1 140-608 vs WT, mean of 3 replicates (log2 scale).
The mark [8] stands for this setting: KO vs WT, mean of 3 replicates (log2 scale).
Where [9] appears, read: MCF7 CARM1 knockout vs wild type, 3 biological replicates each, values are on log2 scale.
[10] abbreviates: difference of log2 means, CARM1 140-608 vs WT.
[11] abbreviates: difference of log2 means, KO vs WT.
The mark [12] stands for this setting: mean, CARM1 140-608 versus WT (log2 scale).
The mark [13] stands for this setting: mean, CARM1 KO versus WT (log2 scale).
The mark [14] stands for this setting: CARM1 140-608 versus WT, difference of mean log2 values.
The mark [15] stands for this setting: CARM1 KO versus WT, difference of mean log2 values.
The mark [16] stands for this setting: ADMA-containing peptide, CARM1 knockout (KO) vs wild type (WT) MCF7 cells, 6-plex TMT experiment #1, three biological replicates each, sheet "MCF7".
Where [17] appears, read: MCF7, CARM1 knockout vs wild type, n = 3 each.
[18] abbreviates: ratio on log2 scale, mean of 3 replicates.

APPSFPPPAASrGGLGGTR: in the assay on MCF7 cells (setting [1]), the “Fold change KO/WT” value amounted to 0.1973. Besides, in the assay with MCF7 CARM1 KO cells (setting [2]), the “CARM1 140-608/WT” value is recorded as -0.3832 and the KO/WT is given as 0.1973.
Regarding ErLALAAGPALrPDMSYAER, in the assay with MCF7 cells (setting [3]), the “Fold change KO/WT” value is listed as -2.368. Also, the “CARM1 140-608/WT” value in the assay with MCF7 CARM1 KO cells (setting [4]) is reported as -1.6609. The KO/WT with MCF7 CARM1 KO cells (setting [5]) is on record as -2.368.
Consider YRPYDGAASAYAQNYrYPEPERPSSR, for which the “Fold change KO/WT” value in the assay on MCF7 cells (setting [6]) is listed as -0.7141. In addition, the “CARM1 140-608/WT” value with MCF7 CARM1 KO cells (setting [7]) is given as -1.157. For the same substance, the KO/WT in the assay on MCF7 CARM1 KO cells (setting [8]) is reported as -0.7141.
Regarding “QLVGGSQAFYQrAPYPGSLPLQQQQQQLWQQQQATAATSMrFAMSARFPSTPGPELGR”, the “Fold change KO/WT” value in the assay on MCF7 cells (setting [9]) is -2.512. For the same substance, the “CARM1 140-608/WT” value in the assay with MCF7 CARM1 KO cells (setting [10]) is reported as -1.475. The KO/WT in the assay on MCF7 CARM1 KO cells (setting [11]) was -2.512.
“TATVTIrPNTSGSGGTTSNSQVITGPQIrPGMTVIRTPLQQSTLGK”: the “Fold change KO/WT” value in the assay with MCF7 cells (setting [3]) is given as -1.078. In addition, the “CARM1 140-608/WT” value in the assay on MCF7 CARM1 KO cells (setting [4]) is 2.998. Besides, the KO/WT in the assay with MCF7 CARM1 KO cells (setting [5]) is -1.078.
In the case of APVFPGrGSYSNR, in the assay with MCF7 cells (setting [9]), the “Fold change KO/WT” value is -0.1545. The “CARM1 140-608/WT” value in the assay on MCF7 CARM1 KO cells (setting [12]) turned out to be 0.1704. Also, the KO/WT in the assay with MCF7 CARM1 KO cells (setting [13]) turned out to be 0.1127.
As to LITFQLrHILK, the “Fold change KO/WT” value with MCF7 cells (setting [1]) is reported as -5.219. Besides, the “CARM1 140-608/WT” value with MCF7 CARM1 KO cells (setting [14]) is reported as -4.254. In the assay with MCF7 CARM1 KO cells (setting [15]), the KO/WT is given as -5.219.
In the case of RPPTPGPDTSVSGPrLTLALAPGPPPPPSR, the “Fold change KO/WT” value in the assay with MCF7 cells (setting [16]) is given as -1.877. For the same substance, the “CARM1 140-608/WT” value in the assay on MCF7 CARM1 KO cells (setting [10]) is -1.4. The KO/WT with MCF7 CARM1 KO cells (setting [11]) is on record as -1.877.
SHGYKPHFVPNFNGPNAIrQFQPNQINENWK: the “Fold change KO/WT” value in the assay with MCF7 cells (setting [17]) is reported as -2.033. Besides, in the assay with MCF7 CARM1 KO cells (setting [18]), the “CARM1 140-608/WT” value is -1.237 and the KO/WT was -2.033.
With “MGTPVPrPPQDMGQIGVrTPLGPrVAAPVGPVGPTPTVLPMGAPVPrPR”, the “Fold change KO/WT” value in the assay with MCF7 cells (setting [6]) is recorded as -2.587. Further, in the assay with MCF7 CARM1 KO cells (setting [7]), the “CARM1 140-608/WT” value is -1.761. For the same substance, the KO/WT with MCF7 CARM1 KO cells (setting [8]) is recorded as -2.783.
Turning to GPVGQALPrPQAPPrLQSLMGTVQQGAQSWQQR, the “Fold change KO/WT” value in the assay on MCF7 cells (setting [16]) is -3.859. In addition, the “CARM1 140-608/WT” value with MCF7 CARM1 KO cells (setting [10]) was -1.639. For the same substance, the KO/WT in the assay on MCF7 CARM1 KO cells (setting [11]) is reported as -3.859.
Regarding “FDGSPGQMGGGGPLrFEGPQGQLGGGCPLrFEGPPGPVGTPLrFEGPIGQAGGGGFR”, the “Fold change KO/WT” value in the assay on MCF7 cells (setting [16]) is -4.068. The “CARM1 140-608/WT” value with MCF7 CARM1 KO cells (CARM1 140-608 versus WT, mean of three replicates (log2)) came to 0.07812. Also, the KO/WT in the assay with MCF7 CARM1 KO cells (KO versus WT, mean of three replicates (log2)) is -4.068.
As for FGDMSYSIrHSISMPAMR, the “Fold change KO/WT” value in the assay on MCF7 cells (setting [1]) is reported as -3.258. Besides, in the assay on MCF7 CARM1 KO cells (setting [2]), the “CARM1 140-608/WT” value was -2.806 and the KO/WT is reported as -3.258.
Consider APVFPGrGSYSNr, for which, in the assay on MCF7 cells (setting [9]), the “Fold change KO/WT” value stood at 0.2723. For the same substance, in the assay with MCF7 CARM1 KO cells (setting [12]), the “CARM1 140-608/WT” value amounted to 0.2637. In addition, the KO/WT in the assay with MCF7 CARM1 KO cells (setting [13]) is 0.3482.
As to TNRPGISTTDrGFPrArYR, in the assay on MCF7 cells (setting [3]), the “Fold change KO/WT” value is recorded as -0.1094. The “CARM1 140-608/WT” value with MCF7 CARM1 KO cells (setting [4]) is on record as -0.4847. Also, the KO/WT in the assay with MCF7 CARM1 KO cells (setting [5]) is recorded as -0.1094.
Take TAAALAPASLTSArMAPALSGANLTSPrVPLSAYER: the “Fold change KO/WT” value in the assay with MCF7 cells (setting [1]) is given as -3.829. In the assay on MCF7 CARM1 KO cells (setting [2]), the “CARM1 140-608/WT” value was -2.654 and the KO/WT is on record as -3.829.
Consider LrQQLQAK, for which the “Fold change KO/WT” value in the assay with MCF7 cells (setting [16]) is listed as -3.626. The “CARM1 140-608/WT” value in the assay with MCF7 CARM1 KO cells (setting [10]) is given as -1.5575. Also, the KO/WT in the assay with MCF7 CARM1 KO cells (setting [11]) is given as -2.723.
Take FArVPLALHPVVGQPFLK: the “Fold change KO/WT” value in the assay with MCF7 cells (setting [3]) is -2.764. In the assay with MCF7 CARM1 KO cells (setting [18]), the “CARM1 140-608/WT” value is recorded as -2.105 and the KO/WT is given as -2.764.
As for VGVPPQNPrPSLNSAPSPFNPQGQSQITDPR, the “Fold change KO/WT” value in the assay on MCF7 cells (setting [6]) is recorded as -2.569. Further, the “CARM1 140-608/WT” value in the assay with MCF7 CARM1 KO cells (setting [7]) was -2.085. In addition, the KO/WT in the assay on MCF7 CARM1 KO cells (setting [8]) was -2.569.
KYPLPPPSGrYNWN: the “Fold change KO/WT” value in the assay on MCF7 cells (CARM1 KO vs wild type MCF7 cells, 3 biological replicates each) is on record as -1.439. Also, the “CARM1 140-608/WT” value with MCF7 CARM1 KO cells (setting [14]) is -1.833. Also, the KO/WT with MCF7 CARM1 KO cells (setting [15]) is reported as -2.65.
CAGFLEPTWLAAPPrLArPPrFYEAGEELTGPGAVAAAR: the “Fold change KO/WT” value with MCF7 cells (setting [17]) was -3.713. For the same substance, in the assay on MCF7 CARM1 KO cells (setting [18]), the “CARM1 140-608/WT” value is given as -2.314 and the KO/WT was -3.713.
On to NrGAGGFGGGGGTR, for which, in the assay on MCF7 cells (setting [3]), the “Fold change KO/WT” value is reported as -0.03405. Also, the “CARM1 140-608/WT” value in the assay with MCF7 CARM1 KO cells (setting [4]) amounted to 0.06902. In the assay with MCF7 CARM1 KO cells (setting [5]), this substance returned a KO/WT of 0.4755.
With “MGTPVPrPPQDMGQIGVRTPLGPrVAAPVGPVGPTPTVLPMGAPVPrPR”, the “Fold change KO/WT” value in the assay with MCF7 cells (setting [6]) is reported as -2.512. In the assay on MCF7 CARM1 KO cells (setting [7]), the “CARM1 140-608/WT” value is on record as -3.81. In addition, in the assay with MCF7 CARM1 KO cells (setting [8]), the KO/WT is listed as -4.903.
In the case of APVFPGrGSYSNrGNYNR, the “Fold change KO/WT” value in the assay with MCF7 cells (setting [9]) is 0.06661. The “CARM1 140-608/WT” value in the assay with MCF7 CARM1 KO cells (setting [12]) worked out at 0.3143. The KO/WT in the assay with MCF7 CARM1 KO cells (setting [13]) is -0.1859.
FPAGArYAGAGGLER: the “Fold change KO/WT” value with MCF7 cells (setting [3]) is on record as -0.6954. For the same substance, the “CARM1 140-608/WT” value with MCF7 CARM1 KO cells (setting [4]) was -0.8137. The KO/WT in the assay on MCF7 CARM1 KO cells (setting [5]) is given as -1.235.
CPADNPGLVQAQPrVPLTPTR: the “Fold change KO/WT” value with MCF7 cells (setting [1]) was -4.345. In addition, in the assay with MCF7 CARM1 KO cells (setting [2]), the “CARM1 140-608/WT” value is recorded as -3.3817 and the KO/WT is -4.345.
